Experimental data: BindingDB's records for doi:10.1016/S0893-133X(01)00298-6 (Eli Lilly, 2001)
Values joined by “and” are separate entries in the source; they are usually repeats but may differ in a detail not shown here. Identical values can stand only once.

Columns and labels:
[1] = biological target: Sigma non-opioid intracellular receptor 1 (Cavia porcellus, UniProt Q60492)
[2] = biological target: 5-hydroxytryptamine receptor 6 (Homo sapiens, UniProt P50406)
[3] = biological target: ATP-sensitive inward rectifier potassium channel 1 (Rattus norvegicus, UniProt P35560)
[4] = biological target: Adenosine receptor A2b (Bos taurus, UniProt Q1LZD0)
[5] = biological target: Calcium-activated potassium channel subunit beta-1 (Rattus norvegicus, UniProt P97678)
[6] = biological target: Glutamate receptor ionotropic, kainate 1 (Rattus norvegicus, UniProt P22756)
[7] = biological target: Gamma-aminobutyric acid receptor subunit alpha-1 (Bos taurus, UniProt P08219)
[8] = biological target: Gamma-aminobutyric acid receptor subunit alpha-1 (Rattus norvegicus, UniProt P62813)
[9] = biological target: 5-hydroxytryptamine receptor 1A (Homo sapiens, UniProt P08908)
[10] = biological target: Muscarinic acetylcholine receptor M2 (Homo sapiens, UniProt P08172)
[11] = biological target: Alpha-1B adrenergic receptor (Rattus norvegicus, UniProt P15823)
[12] = biological target: Mu-type opioid receptor (Rattus norvegicus, UniProt P33535)
[13] = biological target: Delta-type opioid receptor (Rattus norvegicus, UniProt P33533)
[14] = biological target: Alpha-bungarotoxin (Bungarus multicinctus, UniProt P60615)
[15] = biological target: D(1A) dopamine receptor (Rattus norvegicus, UniProt P18901)
[16] = biological target: Phosphatidylinositol 3,4,5-trisphosphate 5-phosphatase 2 (Rattus norvegicus, UniProt Q9WVR3)
[17] = biological target: Nitric oxide synthase, brain (Rattus norvegicus, UniProt P29476)
[18] = biological target: Substance-K receptor (Rattus norvegicus, UniProt P16610)
[19] = biological target: Gastrin/cholecystokinin type B receptor (Mus musculus, UniProt P56481)
[20] = biological target: Glycine receptor subunit alpha-1 (Rattus norvegicus, UniProt P07727)
[21] = biological target: Adenosine receptor A1 (Rattus norvegicus, UniProt P25099)
[22] = biological target: Sodium channel protein type 1 subunit alpha (Rattus norvegicus, UniProt P04774)
[23] = biological target: Kappa-type opioid receptor (Cavia porcellus, UniProt P41144)
[24] = biological target: Glutamate receptor 3 (Rattus norvegicus, UniProt P19492)
[25] = biological target: 5-hydroxytryptamine receptor 1D (Homo sapiens, UniProt P28221)
[26] = biological target: Alpha-2A adrenergic receptor (Homo sapiens, UniProt P08913)
[27] = biological target: Sodium channel protein type 2 subunit alpha (Rattus norvegicus, UniProt P04775)
[28] = biological target: Amine oxidase [flavin-containing] A (Rattus norvegicus, UniProt P21396)
[29] = biological target: D(2) dopamine receptor (Homo sapiens, UniProt P14416)
[30] = biological target: Amine oxidase [flavin-containing] B (Rattus norvegicus, UniProt P19643)
[31] = biological target: Alpha-1A adrenergic receptor (Homo sapiens, UniProt P35348)

Sequence of Alpha-2A adrenergic receptor (P08913 whole entry): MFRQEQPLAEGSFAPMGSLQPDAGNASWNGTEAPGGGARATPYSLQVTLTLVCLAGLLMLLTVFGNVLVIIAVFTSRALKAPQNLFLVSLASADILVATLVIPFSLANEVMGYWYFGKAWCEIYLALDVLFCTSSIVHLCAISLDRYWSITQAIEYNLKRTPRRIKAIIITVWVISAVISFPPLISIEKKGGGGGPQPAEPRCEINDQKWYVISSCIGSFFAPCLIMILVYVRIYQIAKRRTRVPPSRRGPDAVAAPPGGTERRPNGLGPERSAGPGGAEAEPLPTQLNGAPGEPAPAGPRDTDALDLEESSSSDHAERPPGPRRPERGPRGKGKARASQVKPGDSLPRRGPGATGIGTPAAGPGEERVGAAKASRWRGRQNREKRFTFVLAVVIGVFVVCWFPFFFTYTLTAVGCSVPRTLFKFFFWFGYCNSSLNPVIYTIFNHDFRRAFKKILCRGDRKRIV
Sequence of Sigma non-opioid intracellular receptor 1 (Q60492 whole entry): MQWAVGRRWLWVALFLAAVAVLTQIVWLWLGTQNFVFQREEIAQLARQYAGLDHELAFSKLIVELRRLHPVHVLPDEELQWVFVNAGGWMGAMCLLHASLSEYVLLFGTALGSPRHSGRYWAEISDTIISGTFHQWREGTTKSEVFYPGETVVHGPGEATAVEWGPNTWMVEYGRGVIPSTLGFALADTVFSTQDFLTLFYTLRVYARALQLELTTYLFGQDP
Sequence of Muscarinic acetylcholine receptor M2 (P08172 whole entry): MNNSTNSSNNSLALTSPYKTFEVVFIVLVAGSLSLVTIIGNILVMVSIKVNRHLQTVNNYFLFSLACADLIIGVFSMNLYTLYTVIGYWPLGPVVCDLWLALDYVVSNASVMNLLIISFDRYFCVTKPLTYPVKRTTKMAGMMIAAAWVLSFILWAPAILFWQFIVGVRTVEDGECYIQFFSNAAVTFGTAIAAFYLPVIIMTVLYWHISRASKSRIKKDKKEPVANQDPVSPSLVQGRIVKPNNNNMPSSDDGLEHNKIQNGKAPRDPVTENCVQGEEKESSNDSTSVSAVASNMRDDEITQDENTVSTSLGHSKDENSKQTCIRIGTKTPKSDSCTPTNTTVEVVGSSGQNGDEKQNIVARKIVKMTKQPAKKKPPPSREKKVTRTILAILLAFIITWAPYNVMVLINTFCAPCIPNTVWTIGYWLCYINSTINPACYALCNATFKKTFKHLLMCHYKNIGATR
Sequence of 5-hydroxytryptamine receptor 6 (P50406 whole entry): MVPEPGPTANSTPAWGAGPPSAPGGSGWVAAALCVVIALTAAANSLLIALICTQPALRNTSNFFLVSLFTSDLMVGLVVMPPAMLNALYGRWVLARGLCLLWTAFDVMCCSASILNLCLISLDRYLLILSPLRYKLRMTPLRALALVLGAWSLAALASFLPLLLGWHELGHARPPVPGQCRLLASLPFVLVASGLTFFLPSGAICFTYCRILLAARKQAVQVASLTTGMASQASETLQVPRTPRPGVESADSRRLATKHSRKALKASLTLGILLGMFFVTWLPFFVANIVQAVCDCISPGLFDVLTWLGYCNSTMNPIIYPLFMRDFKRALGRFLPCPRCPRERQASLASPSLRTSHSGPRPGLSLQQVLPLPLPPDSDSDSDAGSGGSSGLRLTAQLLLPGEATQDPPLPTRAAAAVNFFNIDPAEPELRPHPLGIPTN
Sequence of Gamma-aminobutyric acid receptor subunit alpha-1 (Rattus norvegicus, UniProt P62813) (P62813 whole entry): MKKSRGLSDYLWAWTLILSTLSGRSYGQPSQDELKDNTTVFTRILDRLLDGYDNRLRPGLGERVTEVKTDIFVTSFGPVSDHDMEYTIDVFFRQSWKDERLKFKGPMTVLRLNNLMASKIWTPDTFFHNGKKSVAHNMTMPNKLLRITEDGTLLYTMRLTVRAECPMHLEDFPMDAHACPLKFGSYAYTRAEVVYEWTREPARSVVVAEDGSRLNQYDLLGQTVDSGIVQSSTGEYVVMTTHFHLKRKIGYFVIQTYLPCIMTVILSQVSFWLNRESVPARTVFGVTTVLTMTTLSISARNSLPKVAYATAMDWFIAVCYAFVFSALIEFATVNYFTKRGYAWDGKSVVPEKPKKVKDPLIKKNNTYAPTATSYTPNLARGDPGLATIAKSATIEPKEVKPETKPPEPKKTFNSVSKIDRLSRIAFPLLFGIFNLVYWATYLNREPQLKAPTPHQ
Sequence of D(2) dopamine receptor (P14416 whole entry): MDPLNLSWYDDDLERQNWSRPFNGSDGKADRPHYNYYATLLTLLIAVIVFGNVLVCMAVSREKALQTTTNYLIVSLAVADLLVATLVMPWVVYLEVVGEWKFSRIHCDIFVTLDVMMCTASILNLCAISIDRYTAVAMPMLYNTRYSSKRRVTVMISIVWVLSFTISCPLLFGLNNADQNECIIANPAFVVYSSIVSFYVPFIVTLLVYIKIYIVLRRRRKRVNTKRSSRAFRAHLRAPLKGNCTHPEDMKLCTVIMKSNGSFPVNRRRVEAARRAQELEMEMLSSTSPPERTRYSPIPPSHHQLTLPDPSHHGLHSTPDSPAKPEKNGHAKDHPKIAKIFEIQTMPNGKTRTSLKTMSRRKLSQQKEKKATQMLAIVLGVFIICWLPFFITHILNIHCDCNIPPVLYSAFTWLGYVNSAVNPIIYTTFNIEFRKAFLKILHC
Sequence of Kappa-type opioid receptor (P41144 whole entry): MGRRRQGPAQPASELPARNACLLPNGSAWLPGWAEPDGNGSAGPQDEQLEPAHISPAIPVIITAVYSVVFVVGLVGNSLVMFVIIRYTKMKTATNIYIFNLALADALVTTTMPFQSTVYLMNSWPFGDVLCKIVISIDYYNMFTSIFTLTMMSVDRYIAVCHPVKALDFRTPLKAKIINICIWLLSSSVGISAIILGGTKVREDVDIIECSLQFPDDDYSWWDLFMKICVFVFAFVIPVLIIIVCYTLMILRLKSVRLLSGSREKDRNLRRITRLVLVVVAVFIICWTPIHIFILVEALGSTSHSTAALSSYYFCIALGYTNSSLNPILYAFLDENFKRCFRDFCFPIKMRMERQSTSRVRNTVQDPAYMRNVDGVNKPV
Sequence of Glutamate receptor 3 (P19492 whole entry): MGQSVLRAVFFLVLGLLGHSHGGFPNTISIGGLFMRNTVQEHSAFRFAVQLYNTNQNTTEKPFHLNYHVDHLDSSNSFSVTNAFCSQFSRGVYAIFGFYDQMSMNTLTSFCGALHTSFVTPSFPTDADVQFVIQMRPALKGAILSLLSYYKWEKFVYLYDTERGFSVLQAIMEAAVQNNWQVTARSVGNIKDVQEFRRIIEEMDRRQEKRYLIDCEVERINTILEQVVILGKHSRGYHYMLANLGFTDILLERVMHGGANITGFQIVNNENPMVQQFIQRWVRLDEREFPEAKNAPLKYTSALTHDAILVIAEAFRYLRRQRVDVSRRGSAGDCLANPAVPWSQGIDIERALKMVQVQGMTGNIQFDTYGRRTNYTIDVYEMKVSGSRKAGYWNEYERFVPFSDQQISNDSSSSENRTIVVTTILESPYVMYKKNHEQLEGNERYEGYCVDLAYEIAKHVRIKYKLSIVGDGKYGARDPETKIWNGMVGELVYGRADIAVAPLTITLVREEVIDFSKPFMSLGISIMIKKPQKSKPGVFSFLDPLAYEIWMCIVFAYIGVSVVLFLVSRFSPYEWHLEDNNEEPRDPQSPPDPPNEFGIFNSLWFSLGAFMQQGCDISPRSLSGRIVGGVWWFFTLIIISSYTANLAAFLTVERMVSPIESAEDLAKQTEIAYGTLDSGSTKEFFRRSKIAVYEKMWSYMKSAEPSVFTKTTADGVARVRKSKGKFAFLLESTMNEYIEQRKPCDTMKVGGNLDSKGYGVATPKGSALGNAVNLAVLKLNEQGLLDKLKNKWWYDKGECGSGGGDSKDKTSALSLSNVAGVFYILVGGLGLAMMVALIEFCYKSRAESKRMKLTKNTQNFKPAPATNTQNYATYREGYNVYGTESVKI
Sequence of 5-hydroxytryptamine receptor 1D (P28221 whole entry): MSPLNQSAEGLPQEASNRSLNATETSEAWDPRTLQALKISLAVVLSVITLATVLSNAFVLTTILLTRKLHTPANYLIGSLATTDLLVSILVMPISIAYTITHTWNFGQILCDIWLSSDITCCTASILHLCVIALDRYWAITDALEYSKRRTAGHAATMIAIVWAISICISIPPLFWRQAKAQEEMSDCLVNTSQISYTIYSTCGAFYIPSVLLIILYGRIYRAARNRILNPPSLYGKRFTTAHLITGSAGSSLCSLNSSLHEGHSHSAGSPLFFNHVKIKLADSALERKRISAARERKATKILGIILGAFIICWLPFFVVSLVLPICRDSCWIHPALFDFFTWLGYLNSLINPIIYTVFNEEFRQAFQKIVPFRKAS
Sequence of Glycine receptor subunit alpha-1 (P07727 whole entry): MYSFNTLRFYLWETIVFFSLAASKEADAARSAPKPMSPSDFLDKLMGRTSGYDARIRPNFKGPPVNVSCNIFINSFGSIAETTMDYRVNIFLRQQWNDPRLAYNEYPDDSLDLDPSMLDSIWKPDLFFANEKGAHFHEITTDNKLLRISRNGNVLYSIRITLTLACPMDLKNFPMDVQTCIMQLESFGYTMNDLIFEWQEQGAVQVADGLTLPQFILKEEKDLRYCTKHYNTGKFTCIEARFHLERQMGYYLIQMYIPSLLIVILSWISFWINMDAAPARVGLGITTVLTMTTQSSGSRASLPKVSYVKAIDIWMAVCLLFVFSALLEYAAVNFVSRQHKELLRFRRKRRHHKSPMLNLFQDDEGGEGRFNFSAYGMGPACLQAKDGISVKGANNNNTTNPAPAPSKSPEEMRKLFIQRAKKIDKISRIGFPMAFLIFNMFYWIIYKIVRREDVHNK
Sequence of Calcium-activated potassium channel subunit beta-1 (P97678 whole entry): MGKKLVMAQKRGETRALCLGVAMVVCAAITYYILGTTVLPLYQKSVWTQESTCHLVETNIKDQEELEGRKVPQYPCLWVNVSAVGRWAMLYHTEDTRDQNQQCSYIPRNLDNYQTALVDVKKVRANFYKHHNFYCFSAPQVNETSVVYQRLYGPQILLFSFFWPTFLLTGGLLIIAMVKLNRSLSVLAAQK
Sequence of Alpha-bungarotoxin (P60615 whole entry): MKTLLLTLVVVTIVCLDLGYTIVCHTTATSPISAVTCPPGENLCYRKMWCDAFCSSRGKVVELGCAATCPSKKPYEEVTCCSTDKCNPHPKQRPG

CNCC[C@H](Oc1cccc2ccccc12)c1cccs1 [DULOXETINE]
Ki [1]: 1000 nM
Ki [2]: 419 nM
Ki [3]: > 1000 nM
Ki [4]: 1000 nM
Ki [5]: 1000 nM
Ki [6]: 1000 nM
Ki [7]: > 1000 nM
Ki [8]: > 1000 nM
Ki [9]: 5000 nM
Ki [10]: 3000 nM and 1000 nM
Ki [11]: > 1000 nM
Ki [12]: 1000 nM
Ki [13]: 1000 nM
Ki [14]: 1000 nM
Ki [15]: 1000 nM
Ki [16]: 1000 nM
Ki [17]: 1000 nM
Ki [18]: 1000 nM
Ki [19]: > 1000 nM
Ki [20]: 1000 nM
Ki [21]: > 1000 nM
Ki [22]: > 1000 nM
Ki [23]: 1000 nM
Ki [24]: > 1000 nM
Ki [25]: 3000 nM
Ki [26]: 8600 nM and 1000 nM
Ki [27]: > 1000 nM
Ki [28]: > 10000 nM
Ki [29]: > 10000 nM
Ki [30]: > 10000 nM

COc1ccc(C(CN(C)C)C2(O)CCCCC2)cc1 (stereo unspecified) [NSC_62923]
Ki [1]: 1000 nM
Ki [2]: 2790 nM
Ki [3]: > 1000 nM
Ki [4]: 1000 nM
Ki [5]: 1000 nM
Ki [6]: 1000 nM
Ki [7]: > 1000 nM
Ki [8]: > 1000 nM
Ki [9]: > 10000 nM
Ki [10]: > 10000 nM and 1000 nM
Ki [11]: > 1000 nM
Ki [12]: 1000 nM
Ki [13]: 1000 nM
Ki [14]: 1000 nM
Ki [15]: 1000 nM
Ki [16]: 1000 nM
Ki [17]: 1000 nM
Ki [31]: > 10000 nM
Ki [18]: 1000 nM
Ki [19]: > 1000 nM
Ki [20]: 1000 nM
Ki [21]: > 1000 nM
Ki [22]: > 1000 nM
Ki [23]: 1000 nM
Ki [24]: > 1000 nM
Ki [25]: > 10000 nM
Ki [26]: > 10000 nM and 1000 nM
Ki [27]: > 1000 nM
Ki [28]: > 10000 nM
Ki [29]: > 10000 nM
Ki [30]: > 10000 nM
